Measured values as given in the NIST ThermoML archive (doi:10.1016/j.jct.2007.09.011).
Numbers after ± are expanded uncertainties.

Tests used:
[1] = 101 kPa, Liquid
[2] = refractive index (Na D-line) (dimensionless); conditions: 298.15 K; 101.33 kPa; Liquid
[3] = refractive index (Na D-line) (dimensionless); xn = mol fraction of the nth substance listed; conditions: 298.15 K, 101 kPa, Liquid
[4] = xn = mol fraction of the nth substance listed; conditions: 101 kPa, Liquid

COCCOCCOCCO [2-[2-(2-methoxyethoxy)ethoxy]ethanol]
[1]
Conditions | mass density [kg/m3]
298.15 K | 1044.91 ± 2.4
308.15 K | 1036.11 ± 2.3
318.15 K | 1027.28 ± 2.2

Conditions | refractive index
[2] | 1.4362 ± 0.0014

CCCCCCCC[n+]1ccn(C)c1.F[B-](F)(F)F [1-methyl-3-octylimidazolium tetrafluoroborate] + COCCOCCO
Conditions | refractive index
[3], x1 = 1 | 1.4319 ± 0.0014

COCCOCCO [2-(2-methoxyethoxy)ethanol] + CCCCCCCC[n+]1ccn(C)c1.F[B-](F)(F)F
mass density [kg/m3], [4]
Conditions | 298.15 K | 308.15 K | 318.15 K
x2 = 0 | 1014.87 ± 2 | 1005.99 ± 1.9 | –
x2 = 0.0088 | 1017.27 ± 2 | 1008.44 ± 1.9 | 999.55 ± 1.8
x2 = 0.0165 | 1019.28 ± 2.1 | 1010.49 ± 1.9 | 1001.65 ± 1.8
x2 = 0.0745 | 1032.37 ± 2.3 | 1023.86 ± 2.1 | 1015.33 ± 2
x2 = 0.1611 | 1046.73 ± 2.5 | 1038.56 ± 2.3 | 1030.36 ± 2.2
x2 = 0.2555 | 1058.05 ± 2.6 | 1050.15 ± 2.5 | 1042.23 ± 2.4
x2 = 0.3459 | 1066.48 ± 2.7 | 1058.76 ± 2.6 | 1051.05 ± 2.5
x2 = 0.4603 | 1075.27 ± 2.9 | 1067.73 ± 2.8 | 1060.25 ± 2.6
x2 = 0.6468 | 1086.77 ± 3 | 1079.5 ± 2.9 | 1072.31 ± 2.8
x2 = 0.8198 | 1094.83 ± 3.1 | 1087.77 ± 3 | 1080.74 ± 2.9
x2 = 0.9227 | 1098.58 ± 3.2 | 1091.61 ± 3.1 | 1084.65 ± 3
x2 = 0.9912 | 1100.8 ± 3.2 | 1093.85 ± 3.1 | 1086.95 ± 3

[3]
Conditions | refractive index
x2 = 0 | 1.4242 ± 0.0014
x2 = 0.0088 | 1.4227 ± 0.0014
x2 = 0.0165 | 1.4251 ± 0.0014
x2 = 0.0745 | 1.4271 ± 0.0014
x2 = 0.1611 | 1.4288 ± 0.0014
x2 = 0.2555 | 1.4298 ± 0.0014
x2 = 0.3459 | 1.4304 ± 0.0014
x2 = 0.4603 | 1.4308 ± 0.0014
x2 = 0.6468 | 1.4312 ± 0.0014
x2 = 0.8198 | 1.4314 ± 0.0014
x2 = 0.9227 | 1.4317 ± 0.0014
x2 = 0.9912 | 1.4318 ± 0.0014

CCCCCCCC[n+]1ccn(C)c1.F[B-](F)(F)F [1-methyl-3-octylimidazolium tetrafluoroborate] + COCCO
mass density [kg/m3], [4]
Conditions | 298.15 K | 308.15 K | 318.15 K
x1 = 0.0106 | 965.72 ± 1.5 | 956.59 ± 1.6 | 947.31 ± 1.7
x1 = 0.0477 | 983.08 ± 1.3 | 974.21 ± 1.4 | 965.56 ± 1.5
x1 = 0.1083 | 1004.86 ± 1.1 | 996.43 ± 1.1 | 987.84 ± 1.2
x1 = 0.1495 | 1016.31 ± 1.3 | 1007.97 ± 1.2 | 999.62 ± 1.1
x1 = 0.2062 | 1029.2 ± 1.5 | 1021.09 ± 1.4 | 1012.99 ± 1.3
x1 = 0.2827 | 1042.98 ± 1.7 | 1035.09 ± 1.6 | 1027.25 ± 1.5
x1 = 0.3204 | 1048.69 ± 1.8 | 1041.05 ± 1.7 | 1033.14 ± 1.6
x1 = 0.542 | 1073.51 ± 2.3 | 1066.16 ± 2.2 | 1058.83 ± 2.1
x1 = 0.7354 | 1087.07 ± 2.7 | 1079.83 ± 2.6 | 1072.61 ± 2.5
x1 = 0.9632 | 1098.9 ± 3.1 | 1092.03 ± 3 | 1085.14 ± 3
x1 = 0.9929 | 1098.25 ± 3.2 | 1091.42 ± 3.1 | 1084.47 ± 3
x1 = 1 | 1101.08 ± 3.2 | 1094.13 ± 3.1 | 1087.24 ± 3

[3]
Conditions | refractive index
x1 = 0.0106 | 1.4015 ± 0.0014
x1 = 0.0477 | 1.4057 ± 0.0014
x1 = 0.1083 | 1.4108 ± 0.0014
x1 = 0.1495 | 1.4134 ± 0.0014
x1 = 0.2062 | 1.4163 ± 0.0014
x1 = 0.2827 | 1.4193 ± 0.0014
x1 = 0.3204 | 1.4208 ± 0.0014
x1 = 0.542 | 1.4258 ± 0.0014
x1 = 0.7354 | 1.4285 ± 0.0014
x1 = 0.9632 | 1.4312 ± 0.0014
x1 = 0.9929 | 1.4318 ± 0.0014
x1 = 1 | 1.4319 ± 0.0014

COCCOCCO [2-(2-methoxyethoxy)ethanol]
[1]
Conditions | mass density [kg/m3]
298.15 K | 1014.87 ± 2
308.15 K | 1005.99 ± 1.9

Conditions | refractive index
[2] | 1.4242 ± 0.0014

CCCCCCCC[n+]1ccn(C)c1.F[B-](F)(F)F [1-methyl-3-octylimidazolium tetrafluoroborate]
[1]
Conditions | mass density [kg/m3]
298.15 K | 1101.08 ± 3.2
308.15 K | 1094.13 ± 3.1
318.15 K | 1087.24 ± 3

Conditions | refractive index
[2] | 1.4319 ± 0.0014

COCCO [2-methoxyethan-1-ol] + CCCCCCCC[n+]1ccn(C)c1.F[B-](F)(F)F
[4], x2 = 0
Conditions | mass density [kg/m3]
298.15 K | 960.05 ± 1.5
308.15 K | 950.81 ± 1.6
318.15 K | 941.45 ± 1.8

Conditions | refractive index
[3], x2 = 0 | 1.4004 ± 0.0014

CCCCCCCC[n+]1ccn(C)c1.F[B-](F)(F)F [1-methyl-3-octylimidazolium tetrafluoroborate] + COCCOCCOCCO
[4], x1 = 1
Conditions | mass density [kg/m3]
298.15 K | 1101.08 ± 3.2
308.15 K | 1094.13 ± 3.1
318.15 K | 1087.24 ± 3

Conditions | refractive index
[3], x1 = 1 | 1.4319 ± 0.0014

COCCO [2-methoxyethan-1-ol]
[1]
Conditions | mass density [kg/m3]
298.15 K | 960.05 ± 1.5
308.15 K | 950.81 ± 1.6
318.15 K | 941.45 ± 1.8

Conditions | refractive index
[2] | 1.4004 ± 0.0014

COCCOCCOCCO [2-[2-(2-methoxyethoxy)ethoxy]ethanol] + CCCCCCCC[n+]1ccn(C)c1.F[B-](F)(F)F
mass density [kg/m3], [4]
Conditions | 298.15 K | 308.15 K | 318.15 K
x2 = 0 | 1044.91 ± 2.4 | 1036.11 ± 2.3 | 1027.28 ± 2.2
x2 = 0.0122 | 1046.7 ± 2.5 | 1037.94 ± 2.3 | 1029.17 ± 2.2
x2 = 0.0223 | 1048.13 ± 2.5 | 1039.41 ± 2.4 | 1030.69 ± 2.2
x2 = 0.0994 | 1057.7 ± 2.6 | 1049.21 ± 2.5 | 1040.84 ± 2.4
x2 = 0.2073 | 1067.89 ± 2.8 | 1059.71 ± 2.6 | 1051.67 ± 2.5
x2 = 0.3192 | 1075.71 ± 2.9 | 1067.81 ± 2.8 | 1060 ± 2.6
x2 = 0.42 | 1081.2 ± 3 | 1073.51 ± 2.8 | 1065.88 ± 2.7
x2 = 0.5301 | 1086.14 ± 3 | 1078.64 ± 2.9 | 1071.18 ± 2.8
x2 = 0.7153 | 1093.01 ± 3.1 | 1085.74 ± 3 | 1078.58 ± 2.9
x2 = 0.8449 | 1097.08 ± 3.2 | 1089.95 ± 3.1 | 1082.96 ± 3
x2 = 0.9395 | 1099.66 ± 3.2 | 1092.63 ± 3.1 | 1085.72 ± 3
x2 = 0.992 | 1100.9 ± 3.2 | 1093.94 ± 3.1 | 1087.05 ± 3

[3]
Conditions | refractive index
x2 = 0 | 1.4362 ± 0.0014
x2 = 0.0122 | 1.4364 ± 0.0014
x2 = 0.0223 | 1.4366 ± 0.0014
x2 = 0.0994 | 1.4372 ± 0.0014
x2 = 0.2073 | 1.4373 ± 0.0014
x2 = 0.3192 | 1.4369 ± 0.0014
x2 = 0.42 | 1.4361 ± 0.0014
x2 = 0.5301 | 1.4352 ± 0.0014
x2 = 0.7153 | 1.4334 ± 0.0014
x2 = 0.8449 | 1.4325 ± 0.0014
x2 = 0.9395 | 1.4321 ± 0.0014
x2 = 0.992 | 1.432 ± 0.0014
